Reference: patent US9353079B2, “Solid forms of an alpha, omega di-substituted dihydroxy cyclopentyl compound and methods for the preparation and use thereof” (Allergan, Inc., priority 2013, dated 2016)

Experiment: Solid-state stability of crystalline forms on storage, XRPD compared before and after
Type: physicochemical
Method: X-Ray powder diffraction patterns (XRPD) were obtained for the crystalline form described herein under the following conditions: • Equipment: Rigaku Smart-Lab • Scan range: 2 to 40° (2θ) • Scan speed: 3° (2θ) per minute • Step width: 0.02° (2θ) • X-ray information: Cu Kα, λ=1.54 Å, 40 kV/44 mA
Approximately 5-10 mg of the sample was gently applied on a low background Si holder and subjected to XRPD scanning.
In addition, another sample of 5-10 milligrams of crystalline Form A was maintained at a temperature of 22±2° C. and relative humidity of 59% for 144 hours.
A sample of 5-10 milligrams of crystalline Form B was maintained at a temperature of 22±2° C. and relative humidity of 59% for 120 hours.
In addition, another sample of 10-50 grams of crystalline Form B was maintained at a temperature of 22±2° C. and relative humidity of 0% for 120 hours.
In addition, a similar sample of crystalline Form B was maintained at a temperature of 40° C. for 16 hours.

change of XRPD pattern / crystal form after storage (22±2° C., relative humidity 0%, 144 hours) | change of XRPD pattern / crystal form after storage (40° C., 25 minutes) | change of XRPD pattern / crystal form after storage (22±2° C., relative humidity 59%, 120 hours) | Structure (SMILES) | change of XRPD pattern / crystal form after storage (22±2° C., relative humidity 59%, 144 hours) | change of XRPD pattern / crystal form after storage (22±2° C., relative humidity 0%, 120 hours) | change of XRPD pattern / crystal form after storage (40° C., 16 hours)
remained substantially unchanged | lack of significant change | – | NC(=O)CCC/C=C\C[C@@H]1[C@@H](/C=C/[C@@H](O)CCc2cc(Cl)sc2Cl)[C@H](O)C[C@@H]1O [Form A, 7-[3α,5α-dihydroxy-2-(3α-hydroxy-5-(3-(2,5-dichloro)thienyl)-1E-pentenyl)cyclopentyl]-5Z-heptenamide] | a substantial portion of crystalline Form A had converted to crystalline Form B | – | –
– | – | remained substantially unchanged | NC(=O)CCC/C=C\C[C@@H]1[C@@H](/C=C/[C@@H](O)CCc2cc(Cl)sc2Cl)[C@H](O)C[C@@H]1O [Form B, 7-[3α,5α-dihydroxy-2-(3α-hydroxy-5-(3-(2,5-dichloro)thienyl)-1E-pentenyl)cyclopentyl]-5Z-heptenamide] | – | poorly-crystalline mixture of Forms A and B | a substantial portion of crystalline Form B had converted to the amorphous form
